From patent US10590365B2, “Compounds for a controlled release of active molecules” (FIRMENICH SA, priority 2013, dated 2020)

Assays:
[1] = test system: Propionibacterium acnes ATCC 6919; assay: Incubation of pro-perfume glucuronide mixture with skin bacteria; remaining conjugate by LC-MS; format: cell-based; details: After 5 days; for Glucuronide-conjugates remaining after incubation with Propionibacterium acnes (in percentage), Average: average of incubations 1-3; for Glucuronide-conjugates remaining after incubation with Propionibacterium acnes (in percentage): blank fixed as 100%
Protocol: (§1) The liberation of perfuming alcohols from the present invention's compounds of formula (I) was tested in vitro during incubation with defined skin bacteria strains.
(§2) c) Bacterial solutions: Two underarm bacterial isolates, Propionibacterium acnes ATCC 6919 and Staphylococcus warneri DSM 20316 (identified by 16S rDNA sequencing by Deutsche Sammlung von Mikroorganismen and ZellKulturen DSMZ, Germany), were cultivated on SCH agar at 37° C. during 72 h in anaerobic conditions and on TSA at 37° C. during 24 h, respectively.
One isolated colony of P. acnes from the pure primary culture on SCH agar was inoculated on a new SCH agar and incubated at 37° C., 72 h in anaerobic conditions. After incubation, the whole culture was dissociated by shaking in 20 ml of NaCl 0.9% then centrifuged 10 min at 5000 rpm at room temperature. The pellet was washed in NaCl 0.9% and concentrated two times in NaCl 0.9%.
(§3) A pro-perfume glucuronides mixture containing menthol glucuronide (6 mg/kg), phenethylol β-glucuronide (10.75 mg/kg) and raspberry ketone β-glucuronide (13 mg/kg) in water was incubated with either: • 500 μL of the previously described bacterial solution • 10 μL of commercial enzymes β-glucuronidase/arylsulfatase from Helix pomatia (RocheDiagnostic, Indianapolis, USA) and 490 μL of NaCl 0.9% as a positive control • 500 μl of NaCl 0.9% as a negative controlfor the incubation with bacteria.
(§4) Each solution was prepared in duplicate (in glass vials).
(§5) The vials were placed in a heating block at 37° C. under gentle stirring from 1 to 7 days depending on the bacteria solutions. At the end of the incubation time, vials were cooled down to room temperature, 150 μL was mixed with 50 μL of LC-MS solvent B, filtered through acrodisc and 1 μL was injected on LC-MS (peak areas considered were measured in SIM mode according to their respective molecular weights). Comparisons were made between glucuronides (HESI−) or glucosides (HESI+) areas in incubated solutions and glucuronides (HESI−) or glucosides (HESI+) areas in the blanks (fixed as 100%).

[2] = test system: Staphylococcus warneri DSM 20316; assay: Incubation of pro-perfume conjugates with skin bacteria; remaining conjugate by LC-MS; format: cell-based
Protocol: as §1, §2
Similarly, one colony of S. warneri from the pure primary culture on TSA was inoculated on a new TSA and incubated for 24 h at 37° C. After incubation, the whole culture was dissociated by shaking in 20 ml of NaCl 0.9% then centrifuged 15 min at 5000 rpm, 4° C. The pellet was washed in NaCl 0.9% and concentrated two times in NaCl 0.9%.
as §3, §4, §5

[3] = Table 2, After 1 day, incubation 1
[4] = Table 2, After 1 day, incubation 2
[5] = Table 3, After 1 day, incubation 1
[6] = Table 3, After 1 day, incubation 2
[7] = Table 3, After 5 day, incubation 1
[8] = Table 3, After 5 day, incubation 2

SMILES	Glucuronide-conjugates remaining after incubation with Propionibacterium acnes (in percentage), Average [1] [%]	Glucuronide-conjugates remaining after incubation with Propionibacterium acnes (in percentage) ([1]; incubation 1) [%]	Glucuronide-conjugates remaining after incubation with Propionibacterium acnes (in percentage) ([1]; incubation 2) [%]	Glucuronide-conjugates remaining after incubation with Propionibacterium acnes (in percentage) ([1]; incubation 3) [%]	Glucuronide-conjugates remaining after incubation with S. warneri (in percentage), Average ([2]; Table 2, After 1 day) [%]	Glucuronide-conjugates remaining after incubation with S. warneri (in percentage) [2, 3] [%]	Glucuronide-conjugates remaining after incubation with S. warneri (in percentage) [2, 4] [%]	Glucuronide-conjugates remaining after incubation with S. warneri (in percentage), Average ([2]; Table 3, After 1 day) [%]	Glucuronide-conjugates remaining after incubation with S. warneri (in percentage) [2, 5] [%]	Glucuronide-conjugates remaining after incubation with S. warneri (in percentage) [2, 6] [%]	Glucuronide-conjugates remaining after incubation with S. warneri (in percentage), Average ([2]; Table 3, After 5 day) [%]	Glucuronide-conjugates remaining after incubation with S. warneri (in percentage) [2, 7] [%]	Glucuronide-conjugates remaining after incubation with S. warneri (in percentage) [2, 8] [%]
CC1CCC(C(C)C)C(OC2O[C@H](C(=O)O)[C@@H](O)[C@H](O)[C@H]2O)C1 (some centres unmarked) [p-menthan-3-ol, glucopyranosiduronic acid 1-menthyl]	7	5	9	7	0	1	0	–	–	–	–	–	–
CC1CCC(C(C)C)C(O)C1 (centres unmarked) [menthol]	–	–	–	–	–	–	–	74	72	77	34	36	31
C=CCc1ccc(O[C@@H]2O[C@H](C(=O)O)[C@@H](O)[C@H](O)[C@H]2O)c(OC)c1 [β-D-glucopyranosiduronic acid 2-methoxy-4-(2-propen-1-yl)phenyl]	–	–	–	–	–	–	–	100	130	120	0	0	0
COc1cc(C=O)ccc1O[C@@H]1O[C@H](C(=O)O)[C@@H](O)[C@H](O)[C@H]1O [β-D-glucopyranosiduronic acid 4-formyl-2-methoxyphenyl]	–	–	–	–	–	–	–	100	84	96	0	0	0
CC(=O)CCc1ccc(O[C@@H]2O[C@H](C(=O)O)[C@@H](O)[C@H](O)[C@H]2O)cc1 [(4-hydroxyphenyl)-2-butanone-β-D-glucopyranosiduronic acid]	58	61	58	57	0	0	0	–	–	–	–	–	–
